Assay results as given in patent publication US20190211002A1, “NOVEL TRIAZOLE DERIVATIVES” (Bayer CropScience Aktiengesellschaft, priority 2016, published 2019).

Assay: LogP by HPLC on reversed phase columns (EEC directive 79/831 Annex V.A8)
Format: physicochemical
Settings: method [a]: LC-UV, acidic range, 0.1% formic acid in water and acetonitrile as eluent
Experimental: Measurement of LogP values was performed according to EEC directive 79/831 Annex V.A8 by HPLC (High Performance Liquid Chromatography) on reversed phase columns with the following methods: • ^[a] […] Lambda-max-values were determined using UV-spectra from 200 nm to 400 nm and the peak values of the chromatographic signals.

SMILES | LogP
CSc1ccc(Oc2ccc(C3(Cn4cncn4)OCCO3)c(C(F)(F)F)n2)cc1 [I.20] | 3.05 ^[a]
CCCC1COC(Cn2cncn2)(c2ccc(Oc3ccc(Br)cc3)nc2C(F)(F)F)O1 (mixture of isomers) [I.08] | 4.32^[a]
CCC1COC(Cn2cncn2)(c2ccc(Oc3ccc(S(F)(F)(F)(F)F)cc3)nc2C(F)(F)F)O1 (mixture of isomers) [I.01] | 4.15^[a]
Cc1ccc(Oc2ccc(C3(Cn4nc[nH]c4=S)OCCO3)c(C(F)(F)F)n2)cc1 [I-S.03] | 2.94 ^[a]
CC1OC(Cn2cncn2)(c2ccc(Oc3ccc(Cl)cc3)nc2C(F)(F)F)OC1C (mixture of isomers) [I.18] | 3.76^[a]
CC1OC(Cn2cncn2)(c2ccc(Oc3ccc(Br)cc3)nc2C(F)(F)F)OC1C (mixture of isomers) [I.17] | 3.85^[a]
CSc1ccc(Oc2ccc(C3(Cn4nc[nH]c4=S)OCCO3)c(C(F)(F)F)n2)cc1 [I-S.04] | 2.95 ^[a]
Cc1ccc(Oc2ccc(C3(Cn4cncn4)OCCO3)c(C(F)(F)F)n2)cc1 [I.25] | 3.21 ^[a]
FC(F)(F)c1nc(Oc2ccc(Br)cc2)ccc1C1(Cn2nc[nH]c2=S)OCCO1 [I-S.05] | 3.14 ^[a]

Now from value to compound:

LogP | SMILES
3.83^[a] | CCC1COC(Cn2cncn2)(c2ccc(Oc3ccc(Cl)cc3)nc2C(F)(F)F)O1 (mixture of isomers) [I.15]
3.62^[a] | CC1COC(Cn2cncn2)(c2ccc(Oc3ccc(C(F)(F)F)cc3)nc2C(F)(F)F)O1 (mixture of isomers) [I.10]
3.76 ^[a] | CC1COC(Cn2cncn2)(c2ccc(Oc3ccc(OC(F)(F)F)cc3)nc2C(F)(F)F)O1 (mixture of isomers) [I.21]
3.46 ^[a] | FC(F)(F)Oc1ccc(Oc2ccc(C3(Cn4cncn4)OCCO3)c(C(F)(F)F)n2)cc1 [I.22]
4.19^[a] | CCCC1COC(Cn2cncn2)(c2ccc(Oc3ccc(Cl)cc3)nc2C(F)(F)F)O1 (mixture of isomers) [I.05]
3.55^[a] | CC1COC(Cn2cncn2)(c2ccc(Oc3ccc(Cl)cc3)nc2C(F)(F)F)O1 (mixture of isomers) [I.03]
4.09 ^[a] | CCC1COC(Cn2cncn2)(c2ccc(Oc3ccc(OC(F)(F)F)cc3)nc2C(F)(F)F)O1 (stereo not drawn) [I.24]
3.80 ^[a] | FC(F)(F)c1nc(Oc2ccc(Br)cc2)ccc1C1(Cn2cncn2)OCC(C(F)(F)F)O1 (racemic) [I.23]
2.26 ^[a] | FC(F)(F)c1nc(Oc2ccc(Br)cc2)ccc1C1(Cn2cncn2)OCC(C(F)(F)F)O1 (racemic) [I.26]
3.94^[a] | CCC1COC(Cn2cncn2)(c2ccc(Oc3ccc(Br)cc3)nc2C(F)(F)F)O1 (mixture of isomers) [I.06]
3.48^[a] | CC1COC(Cn2cncn2)(c2ccc(Oc3ccc(Cl)cc3)nc2C(F)(F)F)O1 (single isomer, unassigned) [I.12]
3.48^[a] | CC1COC(Cn2cncn2)(c2ccc(Oc3ccc(Cl)cc3)nc2C(F)(F)F)O1 (single isomer, unassigned) [I.13]
3.46^[a] | CC1COC(Cn2cncn2)(c2ccc(Oc3ccc(Cl)cc3)nc2C(F)(F)F)O1 (racemic) [I.09]
3.85^[a] | CC1COC(Cn2cncn2)(c2ccc(Oc3ccc(S(F)(F)(F)(F)F)cc3)nc2C(F)(F)F)O1 (mixture of isomers) [I.19]

Same assay, conditions: reversed phase HPLC column, method [a]: LC-UV, acidic range, 0.1% formic acid in water and acetonitrile as eluent

chromatographic logP | SMILES
4.44 | CC1(c2ccc(Oc3ccc(Cl)cc3)nc2C(F)(F)F)OCCO1 [XV.01, 6-(4-chlorophenoxy)-3-(2-methyl-1,3-dioxolan-2-yl)-2-(trifluoromethyl)pyridine]
